Assay results reported in patent US8217029B2, “Oxazolidinone antibiotics” (Actelion Pharmaceuticals Ltd, priority 2007, dated 2012).
≈ marks a conversion by molar mass, not a printed value.

These compounds were tested on S aureus A798 (assay: Minimal inhibitory concentration (MIC), microdilution method in cation-adjusted Mueller-Hinton Broth following NCCLS guidelines). Conditions: pH of test medium 7.2-7.3.
Type: cell-based
Method in brief: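 MICs (mg/l) came from NCCLS-guided microdilution, using cation-adjusted Mueller-Hinton medium adjusted to pH 7.2-7.3.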
COc1ccc2nccc(N3CC(NC[C@@H]4CN(c5ccc(C)c(F)c5)C(=O)O4)C3)c2n1 [Example 50, (R)-3-(3-Fluoro-4-methyl-phenyl)-5-{[1-(6-methoxy-[1,5]naphthyridin-4-yl)-azetidin-3-ylamino]-methyl}-oxazolidin-2-one] was tested, and the MIC was no more than 0.031 µg/mL. For COc1ccc2nccc(N3CC(NC[C@@H]4CN(c5ccc6c(c5)OCCO6)C(=O)O4)C3)c2n1 [Example 51, (R)-3-(2,3-Dihydro-benzo[1,4]dioxin-6-yl)-5-{[1-(6-methoxy-[1,5]naphthyridin-4-yl)-azetidin-3-ylamino]-methyl}-oxazolidin-2-one], the MIC was no more than 0.031 µg/mL. Compound COc1ccc2nccc(N3CC(NC[C@@H]4CN(c5ccc6c(c5)NC(=O)CO6)C(=O)O4)C3)c2n1 [Example 52, 6-((R)-5-{[1-(6-Methoxy-[1,5]naphthyridin-4-yl)-azetidin-3-ylamino]-methyl}-2-oxo-oxazolidin-3-yl)-4H-benzo[1,4]oxazin-3-one] has an MIC of no more than 0.031 µg/mL. COc1ccc2nccc(N3CC(NC[C@@H]4CN(c5ccc6c(c5)NC(=O)CS6)C(=O)O4)C3)c2n1 [Example 53, 6-((R)-5-{[1-(6-Methoxy-[1,5]naphthyridin-4-yl)-azetidin-3-ylamino]-methyl}-2-oxo-oxazolidin-3-yl)-4H-benzo[1,4]thiazin-3-one] was tested, and the MIC was no more than 0.031 µg/mL. For COc1ccc2ncnc(N3CC(NC[C@@H]4CN(c5ccc6c(c5)NC(=O)CO6)C(=O)O4)C3)c2c1 [Example 54, 6-((R)-5-{[1-(6-Methoxy-quinazolin-4-yl)-azetidin-3-ylamino]-methyl}-2-oxo-oxazolidin-3-yl)-4H-benzo[1,4]oxazin-3-one], the MIC was no more than 0.031 µg/mL. COc1ccc2ncnc(N3CC(NC[C@@H]4CN(c5ccc6c(c5)NC(=O)CS6)C(=O)O4)C3)c2c1 [Example 55, 6-((R)-5-{[1-(6-Methoxy-quinazolin-4-yl)-azetidin-3-ylamino]-methyl}-2-oxo-oxazolidin-3-yl)-4H-benzo[1,4]thiazin-3-one] was tested, and the MIC was no more than 0.031 µg/mL. COc1ccc2nccc(N3CC(N(C)C[C@@H]4CN(c5ccc6c(c5)NC(=O)CS6)C(=O)O4)C3)c2n1 [Example 56, 6-[(R)-5-({[1-(6-Methoxy-[1,5]naphthyridin-4-yl)-azetidin-3-yl]-methyl-amino}-methyl)-2-oxo-oxazolidin-3-yl]-4H-benzo[1,4]thiazin-3-one] was tested, and the MIC was no more than 0.031 µg/mL. COc1ccc2nccc(N3CC(NC[C@H]4CN(c5ccc6c(c5)NC(=O)CS6)C(=O)O4)C3)c2n1 [Example 57, 6-((S)-5-{[1-(6-Methoxy-[1,5]naphthyridin-4-yl)-azetidin-3-ylamino]-methyl}-2-oxo-oxazolidin-3-yl)-4H-benzo[1,4]thiazin-3-one] was tested, and the MIC was no more than 0.031 µg/mL. COc1ccc2nccc(N3CC(CNC[C@H]4CN(c5ccc6c(c5)NC(=O)CS6)C(=O)O4)C3)c2n1 [Example 59, 6-[(S)-5-({[1-(6-Methoxy-[1,5]naphthyridin-4-yl)-azetidin-3-ylmethyl]-amino}-methyl)-2-oxo-oxazolidin-3-yl]-4H-benzo[1,4]thiazin-3-one] gave an MIC of no more than 0.031 µg/mL. Work on COc1ccc2nccc(N3CC[C@H](NC(=O)[C@@H]4CN(c5ccc6c(c5)OCCO6)C(=O)O4)C3)c2n1 [Example 60, (S)-3-(2,3-Dihydro-benzo[1,4]dioxin-6-yl)-2-oxo-oxazolidine-5-carboxylic acid [(S)-1-(6-methoxy-[1,5]naphthyridin-4-yl)-pyrrolidin-3-yl]-amide] yielded an MIC of no more than 0.031 µg/mL. In the case of COc1ccc2nccc(N3CC[C@@H](NC(=O)[C@@H]4CN(c5ccc6c(c5)OCCO6)C(=O)O4)C3)c2n1 [Example 61, (S)-3-(2,3-Dihydro-benzo[1,4]dioxin-6-yl)-2-oxo-oxazolidine-5-carboxylic acid [(R)-1-(6-methoxy-[1,5]naphthyridin-4-yl)-pyrrolidin-3-yl]-amide], the MIC was no more than 0.031 µg/mL. COc1ccc2nccc(N3CC[C@@H](NC(=O)[C@@H]4CN(c5ccc(C)c(F)c5)C(=O)O4)C3)c2n1 [Example 62, (S)-3-(3-Fluoro-4-methyl-phenyl)-2-oxo-oxazolidine-5-carboxylic acid [(R)-1-(6-methoxy-[1,5]naphthyridin-4-yl)-pyrrolidin-3-yl]-amide] showed an MIC of no more than 0.031 µg/mL. In the case of COc1ccc2nccc(N3CC[C@H](NC(=O)[C@@H]4CN(c5ccc(C)c(F)c5)C(=O)O4)C3)c2n1 [Example 63, (S)-3-(3-Fluoro-4-methyl-phenyl)-2-oxo-oxazolidine-5-carboxylic acid [(S)-1-(6-methoxy-[1,5]naphthyridin-4-yl)-pyrrolidin-3-yl]-amide], the MIC was 0.25 µg/mL (≈ 0.537 µM). COc1ccc2ncc(F)c(N3CC[C@H](NC[C@@H]4CN(c5ccc6c(c5)NC(=O)CO6)C(=O)O4)C3)c2n1 [Example 64, 6-((R)-5-{[(S)-1-(3-Fluoro-6-methoxy-[1,5]naphthyridin-4-yl)-pyrrolidin-3-ylamino]-methyl}-2-oxo-oxazolidin-3-yl)-4H-benzo[1,4]oxazin-3-one] gave an MIC of no more than 0.031 µg/mL. With COc1ccc2ncc(F)c(N3CC[C@H](NC[C@@H]4CN(c5ccc6c(c5)NC(=O)CS6)C(=O)O4)C3)c2n1 [Example 65, 6-((R)-5-{[(S)-1-(3-Fluoro-6-methoxy-[1,5]naphthyridin-4-yl)-pyrrolidin-3-ylamino]-methyl}-2-oxo-oxazolidin-3-yl)-4H-benzo[1,4]thiazin-3-one] the MIC was no more than 0.031 µg/mL. For COc1ccc2ncc(F)c(N3CC[C@H](NC[C@@H]4CN(c5ccc6c(c5)OCCO6)C(=O)O4)C3)c2n1 [Example 66, (R)-3-(2,3-Dihydro-benzo[1,4]dioxin-6-yl)-5-{[(5)-1-(3-fluoro-6-methoxy-[1,5]naphthyridin-4-yl)-pyrrolidin-3-ylamino]-methyl}-oxazolidin-2-one], the “MIC S aureus A798” value was “<=0.031 mg/l”. For COc1ccc2nccc(N3CC[C@H](NC[C@@H]4CN(c5ccc(C)c(F)c5)C(=O)O4)C3)c2n1 [Example 67, (R)-3-(3-Fluoro-4-methyl-phenyl)-5-{[(S)-1-(6-methoxy-[1,5]naphthyridin-4-yl)-pyrrolidin-3-ylamino]-methyl}-oxazolidin-2-one], the MIC was 0.063 µg/mL (≈ 0.14 µM). In the case of COc1ccc2nccc(N3CC[C@@H](NC[C@@H]4CN(c5ccc(C)c(F)c5)C(=O)O4)C3)c2n1 [Example 68, (R)-3-(3-Fluoro-4-methyl-phenyl)-5-{[(R)-1-(6-methoxy-[1,5]naphthyridin-4-yl)-pyrrolidin-3-ylamino]-methyl}-oxazolidin-2-one], the MIC was 0.063 µg/mL (≈ 0.14 µM). COc1ccc2nccc(N3CC[C@H](NC[C@@H]4CN(c5ccc6c(c5)NC(=O)CO6)C(=O)O4)C3)c2n1 [Example 69, 6-((R)-5-{[(S)-1-(6-Methoxy-[1,5]naphthyridin-4-yl)-pyrrolidin-3-ylamino]-methyl}-2-oxo-oxazolidin-3-yl)-4H-benzo[1,4]oxazin-3-one] gave an MIC of no more than 0.031 µg/mL. For COc1ccc2nccc(N3CC[C@H](NC[C@@H]4CN(c5ccc6c(c5)NC(=O)CS6)C(=O)O4)C3)c2n1 [Example 70, 6-((R)-5-{[(S)-1-(6-Methoxy-[1,5]naphthyridin-4-yl)-pyrrolidin-3-ylamino]-methyl}-2-oxo-oxazolidin-3-yl)-4H-benzo[1,4]thiazin-3-one], the MIC was no more than 0.031 µg/mL. COc1ccc2nccc(N3CC[C@@H](NC[C@@H]4CN(c5ccc6c(c5)NC(=O)CS6)C(=O)O4)C3)c2n1 [Example 71, 6-((R)-5-{[(R)-1-(6-Methoxy-[1,5]naphthyridin-4-yl)-pyrrolidin-3-ylamino]-methyl}-2-oxo-oxazolidin-3-yl)-4H-benzo[1,4]thiazin-3-one] showed an MIC of no more than 0.031 µg/mL. With COc1ccc2nccc(N3CC[C@@H](NC[C@@H]4CN(c5ccc6c(c5)NC(=O)CO6)C(=O)O4)C3)c2n1 [Example 72, 6-((R)-5-{[(R)-1-(6-Methoxy-[1,5]naphthyridin-4-yl)-pyrrolidin-3-ylamino]-methyl}-2-oxo-oxazolidin-3-yl)-4H-benzo[1,4]oxazin-3-one] the MIC was no more than 0.031 µg/mL. Work on COc1ccc2nccc(N3C[C@H](NC(=O)[C@@H]4CN(c5ccc6c(c5)OCCO6)C(=O)O4)C[C@H]3CO)c2n1 [Example 78, (S)-3-(2,3-Dihydro-benzo[1,4]dioxin-6-yl)-2-oxo-oxazolidine-5-carboxylic acid [(3R,5S)-5-hydroxymethyl-1-(6-methoxy-[1,5]naphthyridin-4-yl)-pyrrolidin-3-yl]-amide] yielded an MIC of no more than 0.031 µg/mL. COc1ccc2nccc(N3C[C@H](NC[C@@H]4CN(c5ccc6c(c5)NC(=O)CS6)C(=O)O4)C[C@H]3CO)c2n1 [Example 79, 6-((R)-5-{[(3R,5S)-5-Hydroxymethyl-1-(6-methoxy-[1,5]naphthyridin-4-yl)-pyrrolidin-3-ylamino]-methyl}-2-oxo-oxazolidin-3-yl)-4H-benzo[1,4]thiazin-3-one] gave an MIC of 0.25 µg/mL (≈ 0.466 µM). COc1ccc2nccc(N3CC4C(C3)C4NC[C@@H]3CN(c4ccc(C)c(F)c4)C(=O)O3)c2n1 (stereo partly drawn) [Example 88, (R)-3-(3-Fluoro-4-methyl-phenyl)-5-{[(1a,5a,6a)-3-(6-methoxy-[1,5]naphthyridin-4-yl)-3-aza-bicyclo[3.1.0]hex-6-ylamino]-methyl}-oxazolidin-2-one] was tested, and the “MIC S aureus A798” value was 0.125 µg/mL (≈ 0.27 µM). COc1ccc2nccc(N3CC4C(C3)C4NC[C@@H]3CN(c4ccc5c(c4)NC(=O)CS5)C(=O)O3)c2n1 (stereo partly drawn) [Example 89, 6-((R)-5-{[(1α,5α,6α)-3-(6-Methoxy-[1,5]naphthyridin-4-yl)-3-aza-bicyclo[3.1.0]hex-6-ylamino]-methyl}-2-oxo-oxazolidin-3-yl)-4H-benzo[1,4]thiazin-3-one] was tested, and the “MIC S aureus A798” value was “<=0.031 mg/l”. Work on COc1ccc2nccc(N3CCN(C[C@@H]4CN(c5ccc6c(c5)NC(=O)CO6)C(=O)O4)CC3)c2n1 [Example 96, 6-{(R)-5-[4-(6-Methoxy-[1,5]naphthyridin-4-yl)-piperazin-1-ylmethyl]-2-oxo-oxazolidin-3-yl}-4H-benzo[1,4]oxazin-3-one] yielded an MIC of no more than 0.031 µg/mL. COc1ccc2ncc(F)c(N3CCN(C[C@@H]4CN(c5ccc6c(c5)NC(=O)CO6)C(=O)O4)CC3)c2n1 [Example 97, 6-{(R)-5-[4-(3-Fluoro-6-methoxy-[1,5]naphthyridin-4-yl)-piperazin-1-ylmethyl]-2-oxo-oxazolidin-3-yl}-4H-benzo[1,4]oxazin-3-one] gave an MIC of no more than 0.031 µg/mL. COc1ccc2ncc(F)c(N3CCN(C[C@@H]4CN(c5ccc6c(c5)NC(=O)CS6)C(=O)O4)CC3)c2n1 [Example 98, 6-{(R)-5-[4-(3-Fluoro-6-methoxy-[1,5]naphthyridin-4-yl)-piperazin-1-ylmethyl]-2-oxo-oxazolidin-3-yl}-4H-benzo[1,4]thiazin-3-one] showed an MIC of no more than 0.031 µg/mL.
